In US12655139B2, “Isoxazolidines as RIPK1 inhibitors and use thereof” (SANOFI, priority 2020, dated 2026):
pIC50: −log10 of the molar value. Counter-ions that a name gives are not always drawn. Like-named read-outs stand apart in the source and are kept apart here.

Columns and labels:
[1] = molecular target: T1, hRIPK1 (aa 1-375) fusion protein (Homo sapiens, UniProt Q13546); assay: ADP-Glo kinase assay, RIPK1 autophosphorylation; type: biochemical
T1 construct: hRIPK1 (aa 1-375) fusion protein
T1 sequence (Q13546 1-375): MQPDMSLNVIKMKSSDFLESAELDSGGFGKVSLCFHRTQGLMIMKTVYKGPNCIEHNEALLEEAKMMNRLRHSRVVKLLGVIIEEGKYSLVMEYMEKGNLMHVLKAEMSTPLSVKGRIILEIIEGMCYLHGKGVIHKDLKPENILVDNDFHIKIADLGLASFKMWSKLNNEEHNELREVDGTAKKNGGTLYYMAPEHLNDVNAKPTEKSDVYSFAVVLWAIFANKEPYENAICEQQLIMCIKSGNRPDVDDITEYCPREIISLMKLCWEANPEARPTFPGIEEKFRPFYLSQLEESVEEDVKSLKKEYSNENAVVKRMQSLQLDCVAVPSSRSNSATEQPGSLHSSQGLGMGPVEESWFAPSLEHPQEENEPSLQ
Experimental: Evaluation of Receptor-Interacting Protein Kinase 1 Inhibition.
The catalytic activity of RIPK1 was measured by monitoring the conversion of Adenosine triphosphate (ATP) to Adenosine diphosphate (ADP) due to autophosphorylation using an ADP-Glo kinase kit (Promega, catalog no. V9104).
After another 240 minutes incubation at room temperature, 5 μl Promega ADP-Glo reagent I were added to quench the reaction and deplete unconsumed ATP. After an incubation period of 30 minutes, 10 μl Promega ADP-Glo detection reagent II were added resulting in conversion of ADP to ATP, which generates a light-reaction between luciferase and luciferin. Luminescence was quantified after 30 minutes with a Pherastar FS (BMG LABTECH, Ortenberg).
The adjustment was obtained by nonlinear regression using the Levenberg Marquardt algorithm.

[2] = tested on: U937 cells; assay: Cellular assay in U937 cells on cell death (necroptosis), TNFα/zVAD.fmk; type: cell-based; conditions: for pIC50: read-out: U937 IC50
Method in brief: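 U937 cells with 100 ng/ml TNFα plus 50 μM zVAD.fmk (pre-addition suspension levels) received 10 compound concentrations (10 μM–0.26 nM or 1 μM–0.07 nM) for 18–24 h at 37 °C. Live cells were read by MTS formazan absorbance at 490 nm after 4 h. % inhibition is relative to the maximal value without TNFα/zVAD.fmk.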

| pIC50 ([1]; Table 1) | pIC50 ([1]; Key compound table 4) | SMILES | pIC50 ([2]; Homo sapiens, U-937, Table 2) | IC50 ([2]; Homo sapiens, U-937, Key compound table 4, read-out: U937 IC50 (uM) Mean) | pIC50 ([2]; Table 2) |
| --- | --- | --- | --- | --- | --- |
| 7.00 |  | Cc1coc([C@@H]2CCON2C(=O)C2CCN(c3nccc(C(N)=O)n3)CC2)c1 [compound 151, (S)-2-(4-(3-(4-methylfuran-2-yl)isoxazolidine-2-carbonyl)piperidin-1-yl)pyrimidine-4-carboxamide 2,2,2-trifluoroacetate salt] | 7.60 |  |  |
| 7.65 |  | NC(=O)c1nc(N2CCC(C(=O)N3OCC[C@H]3c3ccccn3)CC2)ncc1F [Ex. 175] | 7.35 |  |  |
| 6.35 |  | N#Cc1cncc([C@@H]2CCON2C(=O)C2CCN(c3nccc(C(=O)O)n3)CC2)c1 (single isomer, unassigned) [compound 102] | < 5.00 |  |  |
| 6.81 |  | NC(=O)c1ccnc(N2CCC(C(=O)N3OCCC3C3CCCOC3)CC2)n1 (racemic) [Example 024, 2-[4-[3-Tetrahydropyran-3-ylisoxazolidine-2-carbonyl]-1-piperidyl]pyrimidine-4-carboxamide] | 6.08 |  |  |
|  | 7.96 | N#Cc1cncc([C@@H]2CCON2C(=O)C2CCN(c3ncc(F)c(C(N)=O)n3)CC2)c1 [Ex. 068] |  | 0.003 µM |  |
| 7.62 |  | Cc1ccc([C@@H]2CCON2C(=O)C2CCN(c3nccc(C#N)n3)CC2)cn1 [compound 127, (S)-2-(4-(3-(6-methylpyridin-3-yl)isoxazolidine-2-carbonyl)piperidin-1-yl)pyrimidine-4-carbonitrile] | 7.27 |  |  |
| 7.09 |  | Cc1c(F)cncc1[C@@H]1CCON1C(=O)C1CCN(c2nccc(C(N)=O)n2)CC1 [compound 141, (S)-2-(4-(3-(5-fluoro-4-methylpyridin-3-yl)isoxazolidine-2-carbonyl)piperidin-1-yl)pyrimidine-4-carboxamide] | 6.60 |  |  |
| 7.00 |  | NC(=O)c1ccnc(N2CCC(C(=O)N3OCC[C@H]3c3cncc(N4CCC4=O)c3)CC2)n1 [Ex. 055] | 6.07 |  |  |
| 7.83 |  | N#Cc1cncc([C@@H]2CCON2C(=O)C2CCN(c3ncc(F)c(C(N)=O)n3)CC2)c1 [compound 68] | 8.49 |  |  |
| 7.79 |  | NC(=O)c1ccnc(N2CCC(C(=O)N3OCC[C@H]3c3ccc(Cl)cn3)CC2)n1 [Ex. 083] | 7.31 |  |  |
| 5.33 |  | N#Cc1cncc([C@@H]2CCON2C(=O)C2CCN(c3nccc(C(=O)O)n3)CC2)c1 [Ex. 009] | < 5.00 |  |  |
| 7.48 |  | NC(=O)c1cc(N2CCC(C(=O)N3OCCC3c3cncc(F)c3)CC2)ncn1 (racemic) [Ex. 048*] | 6.88 |  |  |
| 7.37 |  | N#Cc1ccc([C@@H]2CCON2C(=O)C2CCN(c3ncc(F)c(C(N)=O)n3)CC2)nc1 [Ex. 106] | 6.26 |  |  |
| 6.71 |  | CNC(=O)c1cncc(C2CCON2C(=O)C2CCN(c3nccc(C#N)n3)CC2)c1 (racemic) [Example 042, 5-[2-[1-(4-cyanopyrimidin-2-yl)piperidine-4-carbonyl]isoxazolidin-3-yl]-N-methyl-pyridine-3-carboxamide] | 5.22 |  |  |
| 7.66 |  | Cc1ccc([C@@H]2CCON2C(=O)C2CCN(c3cc(C(N)=O)ncn3)CC2)s1 (single isomer, unassigned) [Ex. 176] | 8.43 |  |  |
| 7.55 |  | CC1(CCNC(=O)c2ccnc(N3CCC(C(=O)N4OCC[C@H]4c4cncc(C#N)c4)CC3)n2)CC1 [compound 77, 2-[4-[(3S)-3-(5-cyano-3-pyridyl)isoxazolidine-2-carbonyl]-1-piperidyl]-N-[2-(1-methylcyclo-propyl)ethyl]pyrimidine-4-carboxamide] | 7.41 |  |  |
| 8.02 |  | Cc1cnc([C@@H]2CCON2C(=O)C2CCN(c3nccc(C(N)=O)n3)CC2)cn1 [Ex. 087] | 7.30 |  |  |
| 7.09 |  | N#Cc1ccc([C@@H]2CCON2C(=O)C2CCN(c3nccc(C(N)=O)n3)CC2)nc1 [Ex. 108] | 6.00 |  |  |

More lines, now with the values behind:

| SMILES | pIC50 ([1]; Table 1) | pIC50 ([1]; Key compound table 4) | pIC50 ([2]; Homo sapiens, U-937, Table 2) | IC50 ([2]; Homo sapiens, U-937, Key compound table 4, read-out: U937 IC50 (uM) Mean) | pIC50 ([2]; Table 2) |
| --- | --- | --- | --- | --- | --- |
| N#Cc1ccnc(N2CCC(C(=O)N3OCC[C@H]3c3cncnc3)CC2)c1 [Ex. 065] | 7.18 |  | 6.21 |  |  |
| N#Cc1cncc([C@@H]2CCON2C(=O)C2CCN(c3nccc(C#N)n3)CC2)c1 [Ex. 011] | 7.61 |  | 7.90 |  |  |
| N#Cc1cncc([C@@H]2CCON2C(=O)C2CCN(c3ccnc(C#N)n3)CC2)c1 [compound 145, 4-[4-[(3S)-3-(5-cyano-3-pyridyl)isoxazolidine-2-carbonyl]-1-piperidyl]pyrimidine-2-carbonitrile] | 7.33 |  | 6.83 |  |  |
| N#Cc1cncc([C@@H]2CCON2C(=O)C2CCN(c3cncc(C#N)n3)CC2)c1 [Ex. 067] | 7.07 |  | 6.26 |  |  |
| COc1nc(N2CCC(C(=O)N3OCC[C@H]3c3cncc(C)n3)CC2)ncc1F [Ex. 116] | 7.67 |  | 8.35 |  |  |
| CS(=O)(=O)c1nc(N2CCC(C(=O)N3OCC[C@H]3c3cncc(C#N)c3)CC2)ncc1F [Ex. 105] | 7.95 |  | 5.10 |  |  |
| Cc1cc([C@@H]2CCON2C(=O)C2CCN(c3cc(C#N)ncn3)CC2)co1 [compound 163, (S)-6-(4-(3-(5-methylfuran-3-yl)isoxazolidine-2-carbonyl)piperidin-1-yl)pyrimidine-4-carbonitrile] | 7.68 |  | 8.22 |  |  |
| N#Cc1cncc([C@@H]2CCON2C(=O)C2CCN(c3cncc(C(N)=O)n3)CC2)c1 [Ex. 71] | 7.59 |  | 6.02 |  |  |
| N#Cc1cncc([C@@H]2CCON2C(=O)C2(F)CCN(c3nccc(C(N)=O)n3)CC2(F)F)c1 (some centres unmarked) [Ex. 115] | 7.61 |  | 7.20 |  |  |
| Cc1cnc(N2CCC(C(=O)N3OCC[C@H]3c3cncc(C#N)c3)CC2)nc1C(N)=O [Ex. 053] | 7.93 |  | 7.25 |  |  |
| N#Cc1cncc([C@@H]2CCON2C(=O)C2CCN(c3cc(Br)ncn3)CC2)c1 [Ex. 165] | 7.60 |  | 7.28 |  |  |
| COc1nccc(N2CCC(C(=O)N3OCC[C@H]3c3cncc(C#N)c3)CC2)n1 [compound 144, 5-[(3S)-2-[1-(2-methoxypyrimidin-4-yl)piperidine-4-carbonyl]isoxazolidin-3-yl]pyridine-3-carbonitrile] | 7.12 |  | 6.27 |  |  |
| NC(=O)c1ccnc(N2CCC(F)(C(=O)N3OCC[C@H]3c3cnccn3)C(F)(F)C2)n1 (stereo partly drawn) [compound 122, 2-[3,3,4-trifluoro-4-[(3S)-3-pyrazin-2-ylisoxazolidine-2-carbonyl]-1-piperidyl]pyrimidine-4-carboxamide] | 7.53 |  | 7.35 |  |  |
| N#Cc1cncc([C@@H]2CCON2C(=O)C2CCN(c3ncc(F)c(OCC(N)=O)n3)CC2)c1 [Ex. 035] | 7.18 |  | 6.74 |  |  |
| N#Cc1cncc([C@@H]2CCON2C(=O)C2CCN(c3nc(Cl)ncc3F)CC2)c1 [compound 130, 5-[(3S)-2-[1-(2-chloro-5-fluoro-pyrimidin-4-yl)piperidine-4-carbonyl]isoxazolidin-3-yl]pyridine-3-carbonitrile] | 7.65 |  | 7.65 |  |  |
| N#Cc1cncc([C@@H]2CCON2C(=O)C2CCN(c3ncc(F)c(N)n3)CC2)c1 [Ex. 039] | 7.30 |  | 6.74 |  |  |
| Cc1ccc(C2CCON2C(=O)C2CCN(c3ncc(C)c(C(N)=O)n3)CC2F)cn1 (single isomer, unassigned) [Ex. 185] | 6.53 |  |  |  | 5.94 |
| CC1(C(=O)N2OCC[C@H]2c2cncnc2)CCN(c2nccc(C(N)=O)n2)CC1 [Ex. 061] | 7.41 |  | 6.59 |  |  |
| Cc1c(F)cncc1[C@@H]1CCON1C(=O)C1CCN(c2cc(C#N)ncn2)CC1 [compound 143, (S)-6-(4-(3-(5-fluoro-4-methylpyridin-3-yl)isoxazolidine-2-carbonyl)piperidin-1-yl)pyrimidine-4-carbonitrile] | 6.49 |  | 5.75 |  |  |
| Cc1ccc(C2CCON2C(=O)C2CCN(c3ncc(C)c(C(N)=O)n3)CC2F)cn1 (single isomer, unassigned) [compound 186] | 7.42 |  |  |  | 6.83 |
| N#Cc1cncc([C@@H]2CCON2C(=O)C2CCN(c3ncc(F)c(C#N)n3)CC2)c1 [Ex. 111] | 7.55 |  | 7.94 |  |  |
| N#Cc1cncc([C@@H]2CCON2C(=O)C2CCN(c3ncc(F)c(C(N)=O)n3)CC2F)c1 (some centres unmarked) [Ex. 155] | 7.78 |  |  |  | 8.39 |
| CC1(C(=O)N2OCC[C@H]2c2cncc(C#N)c2)CCN(c2nccc(C(=O)O)n2)CC1 [Ex. 021] | 7.15 |  | < 5.00 |  |  |
| Cc1nsc(N2CCC(C(=O)N3OCC[C@H]3c3cncc(C#N)c3)CC2)n1 [Ex. 113] | 6.91 |  | 6.11 |  |  |
| N#Cc1cc([C@@H]2CCON2C(=O)C2CCN(c3ncc(F)c(C(N)=O)n3)CC2)cnn1 [Ex. 178] | 6.95 |  | 5.89 |  |  |
